Several values for one entry are separate records, joined by “and”; a condition that tells them apart may be missing. Identical values can stand only once.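 Growth conditions: 96-well plates. Treatment: test compound, 48 hours, 5 concentrations. Analysis: linear interpolation between bracketing concentrations; unreached endpoints set to highest concentration. GI50: concentration for 50% inhibition of growth. TGI is the concentration that stops growth completely.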
tested on: NCI-H226 lung; assay: NCI anticancer screen, dose series, 48 h

SMILES | GI50 | TGI
COC(=O)[C@]12CC[C@@H](C)[C@H](C)[C@@H]1C1=CC[C@@H]3[C@@]4(C)C/C(=N\O)[C@H](O)[C@@]5(C)COC(=C45)C[C@@]3(C)[C@]1(C)CC2 | 14.8 µM | 33.5 µM
Oc1c(CN2CCC(N3CCCCC3)CC2)cc(Cc2cc(CN3CCC(N4CCCCC4)CC3)c(O)c3ncccc23)c2cccnc12 | 1.49 µM | 4.53 µM
Cn1c2ccccc2c2c(-c3ccccc3)[n+]3ccncc3nc21 | > 100 µM | > 100 µM
C[C@@H]1OC(O)[C@@H](F)[C@H](O)[C@@H]1O (some centres not stated) | > 100 µM | > 100 µM
COc1ccc(-c2cnnc3c(-c4cccc(C(F)(F)F)c4)cnn23)cc1 | 2.64 µM | > 100 µM
NC(=O)c1ccc(I)c(N)c1 | > 100 µM | > 100 µM
C=CCCCCCCCCC(=O)[O][Sn]([CH2]CCC)([CH2]CCC)[CH2]CCC | 0.17 µM | 0.325 µM
CC/C(=C(/c1ccc(O)cc1)c1ccc(OCCNC)cc1)c1ccccc1 | 5.03 µM | 20.3 µM
O=C(/C(Br)=C/c1ccccc1)c1ccccc1 | 3.5 µM | 14.1 µM
O=C1CCCCN1CCCCC#Cc1ccccc1C#Cc1ccc([N+](=O)[O-])cc1 | 5.03 µM | 22.1 µM
CCOc1cc2c(Cl)ncnc2c(OCC)c1OCC | 12.7 µM | 33.3 µM
Oc1ccc2ccccc2c1N=Nc1nccs1 | 2.75 µM | > 52.9 µM
Cn1c(=O)c2[nH]c(SCc3ccccn3)nc2n(C)c1=S |  | > 100 µM
COc1cc2c(c(O)c1Br)C(=O)c1c(O)cc(C[C@H](C)O)cc1[C@H]2[C@H]1c2cc(C[C@H](C)O)cc(O)c2C(=O)c2c1cc(OC)c(Br)c2O | 6.33 µM and 10.6 µM | 30.9 µM and 47.6 µM
COc1ccc(-c2cc(=O)c3ccc(O)cc3o2)cc1OC |  | > 100 µM
CC[C@]1(O)C[C@@H]2CN(CCc3c([nH]c4ccccc34)[C@@](C(=O)OC)(c3cc4c(cc3OC)N(C)[C@H]3[C@@](O)(C(=O)OC)[C@H](OC(C)=O)[C@]5(CC)C=CCN6CC[C@]43[C@@H]65)C2)C1 |  | 17.7 µM
N#CSc1c[nH]c2cccc(/C=C/C(=O)/C=C(/C=C/c3cccc4[nH]cc(SC#N)c34)OB(F)F)c12 | 2.21 µM | 5.9 µM
COc1cc([N+](=O)[O-])cc2c3c(n(C)c12)[C@@]1(C)CCC2c4ccc(OCc5ccccc5)cc4CCC2C1C3 (some centres not stated) | 80.4 µM | > 100 µM
C=CC(=O)N1CC2(CCN(c3nc(OC4CCN(CCCOC)CC4)nc4c(OCC(F)(F)F)c(-c5c(C)ccc6[nH]ncc56)c(C5CC5)cc34)CC2)C1 | 3.66 µM | 16.5 µM
FC(F)(F)c1cccc(Nc2nccc(-c3cnn4nc(-c5ccccc5)ccc34)n2)c1 | > 25 µM | > 25 µM
CC[C@@H]1C(=O)N(C)c2cnc(Nc3ccc(C(=O)NC4CCN(C)CC4)cc3OC)nc2N1C1CCCC1 | 0.343 µM and 0.982 µM | > 10 µM and 16.8 µM
C=C1C(=O)O[C@H]2[C@H]1CC/C(COC(=O)c1ccc3ccccc3c1)=C\CC[C@@]1(C)O[C@@H]21 | 1.42 µM | 3.21 µM
Nc1nc(Cl)c2ncn(Cc3ccc(C45CC6CC(CC(C6)C4)C5)c(O)c3)c2n1 | 12 µM | 42.9 µM
CCC(C)c1c(Cl)nc(Cl)nc1Cl (configuration not stated) |  | 7.75 µM
O=C1Nc2c(C(F)(F)F)cccc2[C@]1(c1ccc(O)cc1)c1ccc(OC(F)(F)F)cc1 | 11.6 µM | 32.4 µM
COc1ccc(/C=C/c2nccc3ccccc23)cc1OC |  | > 10 µM

tested on: SF-268 CNS; assay: NCI anticancer screen, dose series, 48 h

SMILES | GI50 | TGI
COC(=O)[C@]12CC[C@@H](C)[C@H](C)[C@@H]1C1=CC[C@@H]3[C@@]4(C)C/C(=N\O)[C@H](O)[C@@]5(C)COC(=C45)C[C@@]3(C)[C@]1(C)CC2 | 12.6 µM | 30 µM
Oc1c(CN2CCC(N3CCCCC3)CC2)cc(Cc2cc(CN3CCC(N4CCCCC4)CC3)c(O)c3ncccc23)c2cccnc12 | 0.537 µM | 13.8 µM
Cn1c2ccccc2c2c(-c3ccccc3)[n+]3ccncc3nc21 | 51.3 µM | > 100 µM
C[C@@H]1OC(O)[C@@H](F)[C@H](O)[C@@H]1O (some centres not stated) | > 100 µM | > 100 µM
COc1ccc(-c2cnnc3c(-c4cccc(C(F)(F)F)c4)cnn23)cc1 | 1.78 µM | 7.4 µM
NC(=O)c1ccc(I)c(N)c1 | > 100 µM | > 100 µM
C=CCCCCCCCCC(=O)[O][Sn]([CH2]CCC)([CH2]CCC)[CH2]CCC | 0.149 µM | 0.309 µM
CC/C(=C(/c1ccc(O)cc1)c1ccc(OCCNC)cc1)c1ccccc1 | 2.48 µM | 7.27 µM
O=C(/C(Br)=C/c1ccccc1)c1ccccc1 | 4.56 µM | 16.7 µM
O=C1CCCCN1CCCCC#Cc1ccccc1C#Cc1ccc([N+](=O)[O-])cc1 | 11.7 µM | 27.3 µM
CCOc1cc2c(Cl)ncnc2c(OCC)c1OCC | 2.84 µM | 7.9 µM
Oc1ccc2ccccc2c1N=Nc1nccs1 | 0.312 µM | > 100 µM
Cn1c(=O)c2[nH]c(SCc3ccccn3)nc2n(C)c1=S |  | > 100 µM
COc1cc2c(c(O)c1Br)C(=O)c1c(O)cc(C[C@H](C)O)cc1[C@H]2[C@H]1c2cc(C[C@H](C)O)cc(O)c2C(=O)c2c1cc(OC)c(Br)c2O | 12.3 µM and 31.2 µM | 67.5 µM and > 100 µM
COc1ccc(-c2cc(=O)c3ccc(O)cc3o2)cc1OC |  | > 100 µM
CC[C@]1(O)C[C@@H]2CN(CCc3c([nH]c4ccccc34)[C@@](C(=O)OC)(c3cc4c(cc3OC)N(C)[C@H]3[C@@](O)(C(=O)OC)[C@H](OC(C)=O)[C@]5(CC)C=CCN6CC[C@]43[C@@H]65)C2)C1 | < 0.0281 µM | 19.5 µM
N#CSc1c[nH]c2cccc(/C=C/C(=O)/C=C(/C=C/c3cccc4[nH]cc(SC#N)c34)OB(F)F)c12 | 1.07 µM | 6.44 µM
COc1cc([N+](=O)[O-])cc2c3c(n(C)c12)[C@@]1(C)CCC2c4ccc(OCc5ccccc5)cc4CCC2C1C3 (some centres not stated) | > 100 µM | > 100 µM
C=CC(=O)N1CC2(CCN(c3nc(OC4CCN(CCCOC)CC4)nc4c(OCC(F)(F)F)c(-c5c(C)ccc6[nH]ncc56)c(C5CC5)cc34)CC2)C1 | 3.75 µM | 13.6 µM
FC(F)(F)c1cccc(Nc2nccc(-c3cnn4nc(-c5ccccc5)ccc34)n2)c1 | 10.3 µM | > 19.2 µM
CC[C@@H]1C(=O)N(C)c2cnc(Nc3ccc(C(=O)NC4CCN(C)CC4)cc3OC)nc2N1C1CCCC1 | 0.0156 µM and < 0.01 µM | > 10 µM and 7.8 µM
C=C1C(=O)O[C@H]2[C@H]1CC/C(COC(=O)c1ccc3ccccc3c1)=C\CC[C@@]1(C)O[C@@H]21 | 1.28 µM | 2.75 µM
Nc1nc(Cl)c2ncn(Cc3ccc(C45CC6CC(CC(C6)C4)C5)c(O)c3)c2n1 | 5.34 µM | 21.4 µM
CCC(C)c1c(Cl)nc(Cl)nc1Cl (configuration not stated) |  | > 100 µM
O=C1Nc2c(C(F)(F)F)cccc2[C@]1(c1ccc(O)cc1)c1ccc(OC(F)(F)F)cc1 | 8.73 µM | 24 µM
COc1ccc(/C=C/c2nccc3ccccc23)cc1OC |  | > 10 µM

tested on: SK-MEL-5 melanoma; assay: NCI anticancer screen, dose series, 48 h

SMILES | GI50 [µM] | TGI [µM]
COC(=O)[C@]12CC[C@@H](C)[C@H](C)[C@@H]1C1=CC[C@@H]3[C@@]4(C)C/C(=N\O)[C@H](O)[C@@]5(C)COC(=C45)C[C@@]3(C)[C@]1(C)CC2 | 13.1 | 25.8
Oc1c(CN2CCC(N3CCCCC3)CC2)cc(Cc2cc(CN3CCC(N4CCCCC4)CC3)c(O)c3ncccc23)c2cccnc12 | 1.15 | 2.59
Cn1c2ccccc2c2c(-c3ccccc3)[n+]3ccncc3nc21 | 37.2 | > 100
C[C@@H]1OC(O)[C@@H](F)[C@H](O)[C@@H]1O (some centres not stated) | > 100 | > 100
COc1ccc(-c2cnnc3c(-c4cccc(C(F)(F)F)c4)cnn23)cc1 | 3.85 | > 100
NC(=O)c1ccc(I)c(N)c1 | > 100 | > 100
C=CCCCCCCCCC(=O)[O][Sn]([CH2]CCC)([CH2]CCC)[CH2]CCC | 0.148 | 0.282
CC/C(=C(/c1ccc(O)cc1)c1ccc(OCCNC)cc1)c1ccccc1 | 1.67 | 3.09
O=C(/C(Br)=C/c1ccccc1)c1ccccc1 | 4.96 | 17.3
O=C1CCCCN1CCCCC#Cc1ccccc1C#Cc1ccc([N+](=O)[O-])cc1 | 1.75 | 3.88
CCOc1cc2c(Cl)ncnc2c(OCC)c1OCC | 3.8 | 12.1

— PubChem BioAssay (NCI)
